The record followed here is patent publication US20240115594A1, “DINUCLEOTIDES AND THEIR USE IN TREATING CANCER” (MAIA Biotechnology, Inc., priority 2022, published 2024).

Holding throughout (assay type): cell-based
One test deals with HEK293. Kind of test: IC50 determination / cytotoxicity in human cell lines (HEK293). The following applies: HEK293 (Kidney), 96 h; for IC50: 10.000 cells per well, 96 well plates, read-out: IC50 [μM] relative to untreated cells. On the procedure: (§1) Anticancer activity of the dinucleotides, (formulated and administered in PBS solutions), was evaluated in vitro in various cancer cell lines, according to a commonly used procedures for assessment of compounds cytotoxicity, as out lined in the following publications: Mender, I., Gryaznov, S., Dikmen, Z. G., Wright, W. E., & Shay, J. W. (2015). Induction of telomere dysfunction mediated by the telomerase substrate precursor 6-thio-2′-deoxyguanosine. Cancer Discovery, 5, 82-95; Mender et al., (2020). Telomere Stress Potentiates STING-Dependent Anti-tumor Immunity. Cancer Cell, 38, 400-411.

A further test concerns Panc-1. The experiment in a line: IC50 determination / cytotoxicity in human cell lines (Panc-1). To be noted: 96 h; for % max. toxicity @ 50 μM5: 50 μM; for IC50: 10.000 cells per well, read-out: IC50 [μM] relative to untreated cells. On the procedure: as §1
For a further test, the system named is NCI-H23. Kind of test: IC50 determination / cytotoxicity in human cell lines (NCI-H23). To be noted: NCI-H23 (lung; adenocarcinoma), 96 h; for % max. toxicity @ 50 μM4: 50 μM; for IC50: 10.000 cells per well, read-out: IC50 [μM] relative to untreated cells. On the procedure: as §1
The next test has as its system Hep3B. The experiment in a line: IC50 determination / cytotoxicity in human cell lines (Hep3B). The following applies: Hep3B (liver; childhood HCC), 96 h; for % max. toxicity @ 50 μM2: 50 μM; for IC50: 10.000 cells per well, read-out: IC50 [μM] relative to untreated cells. On the procedure: as §1
In a further test the test system is HepG2. The experiment in a line: IC50 determination / cytotoxicity in human cell lines (HepG2). To be noted: HepG2 (liver; hepatoblastoma), 96 h; for % max. toxicity @ 50 μM3: 50 μM; for IC50: 10.000 cells per well, read-out: IC50 [μM] relative to untreated cells. On the procedure:
as §1

In the case of `Nc1nc2c(ncn2[C@H]2C[C@@H](O)[C@@H](COP(=O)(O)O[C@@H]3C[C@H](n4cc(F)c(=O)[nH]c4=O)O[C@@H]3CO)O2)c(=S)[nH]1` [Compound 6], in the test on HEK293, the “% max. toxicity @ 50 μM” value came out at 93% and the IC50 came to 0.01 µM. In the test with Panc-1, the “% max. toxicity @ 50 μM5” value was 88% and the IC50 was found to be 0.25 µM. Moreover, in the test on NCI-H23, the “% max. toxicity @ 50 μM4” value is 92% and the IC50 stood at 0.02 µM. Also, in the test with Hep3B, the “% max. toxicity @ 50 μM2” value is listed as 82% and the IC50 worked out at 0.06 µM. Also, in the test with HepG2, the “% max. toxicity @ 50 μM3” value worked out at 89% and the IC50 is 0.06 µM.

In the case of `Nc1nc2c(ncn2[C@H]2C[C@@H](O)[C@@H](COP(O)(=S)O[C@@H]3C[C@H](n4cc(F)c(=O)[nH]c4=O)O[C@@H]3CO)O2)c(=S)[nH]1` (some centres unmarked) [Compound-12], in the test with HEK293, the “% max. toxicity @ 50 μM” value was 86% and the IC50 was 0.61 µM. Also, in the test on Panc-1, the “% max. toxicity @ 50 μM5” value turned out to be 48% and the IC50 is above 50 µM. Further, in the test with NCI-H23, the “% max. toxicity @ 50 μM4” value was determined as 81% and the IC50 came out at 2.55 µM. For the same compound, in the test on Hep3B, the “% max. toxicity @ 50 μM2” value was 59% and the IC50 turned out to be 3.68 µM. In the test with HepG2, the “% max. toxicity @ 50 μM3” value is on record as 49% and the IC50 was 1.15 µM.

Consider `Nc1nc2c(ncn2[C@H]2C[C@@H](OP(O)(=S)OC[C@H]3O[C@@H](n4cc(F)c(=O)[nH]c4=O)C[C@H]3O)[C@@H](CO)O2)c(=S)[nH]1` (some centres unmarked) [Compound 11], for which, in the test with HEK293, the “% max. toxicity @ 50 μM” value is reported as 86% and the IC50 was found to be 0.63 µM. In the test with Panc-1, the “% max. toxicity @ 50 μM5” value turned out to be 80% and the IC50 is 5.12 µM. In addition, in the test with NCI-H23, the “% max. toxicity @ 50 μM4” value was 79% and the IC50 is 1.11 µM. Further, in the test with Hep3B, the “% max. toxicity @ 50 μM2” value came out at 62% and the IC50 is 1.12 µM. Besides, in the test with HepG2, the “% max. toxicity @ 50 μM3” value was determined as 71% and the IC50 is 0.61 µM.

Consider `Nc1nc2c(ncn2[C@H]2C[C@@H](OP(=O)(O)OC[C@H]3O[C@@H](n4cc(F)c(=O)[nH]c4=O)C[C@H]3O)[C@@H](CO)O2)c(=S)[nH]1` [Compound 5], for which, in the test on HEK293, the “% max. toxicity @ 50 μM” value was found to be 94% and the IC50 stood at 0.02 µM. Besides, in the test with Panc-1, the “% max. toxicity @ 50 μM5” value is reported as 96% and the IC50 came to 0.25 µM. Moreover, in the test with NCI-H23, the “% max. toxicity @ 50 μM4” value worked out at 94% and the IC50 amounted to 0.01 µM. Besides, in the test on Hep3B, the “% max. toxicity @ 50 μM2” value is 87% and the IC50 was 0.09 µM. Further, in the test with HepG2, the “% max. toxicity @ 50 μM3” value is listed as 92% and the IC50 turned out to be 0.04 µM.

In the case of `Nc1nc2c(ncn2[C@H]2C[C@@H](O)[C@@H](COP(=O)(O)O[C@@H]3C[C@H](n4cnc5c(=S)[nH]c(N)nc54)O[C@@H]3CO)O2)c(=S)[nH]1` [Compound 1], in the test with HEK293, the “% max. toxicity @ 50 μM” value is 94% and the IC50 was found to be 0.28 µM. Moreover, in the test on Panc-1, the “% max. toxicity @ 50 μM5” value amounted to 95% and the IC50 is 0.18 µM. In the test on NCI-H23, the “% max. toxicity @ 50 μM4” value was 93% and the IC50 is 0.07 µM. In addition, in the test with Hep3B, the “% max. toxicity @ 50 μM2” value came to 92% and the IC50 was determined as 0.68 µM. In the test on HepG2, the “% max. toxicity @ 50 μM3” value is recorded as 94% and the IC50 was 0.15 µM.
